Among the test systems are 786-0; A549; CCRF-CEM; HOP-62; MCF7; MDA-MB-435; MOLT-4; NCI-H23; NCI-H460; OVCAR-5; PC-3; SF-295; SK-MEL-2; SNB-19; TK-10; U-251; UACC-257; UACC-62; MDA-N.
Holding throughout (experiment): NCI tumour cell line growth inhibition, 48 h

Structures are written as SMILES. Values joined by “and” are separate entries in the source; they are usually repeats but may differ in a detail not shown here. Identical values can stand only once.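 Exposure lasted 48 hours, with cells grown in 96-well plates and compounds tested at five concentrations. The concentration for 50% growth inhibition is given as GI50.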 Active and inactive are the calls of the source. Rule as the data show it: active = GI50 up to about 1.1 µM and inactive = higher. Some results are limits rather than exact numbers.

For `CC(=O)/C(=C\NC(=S)Nc1ccc(S(N)(=O)=O)cc1)C(=O)Nc1ccccc1C`, the GI50 was 41.9 µM (inactive) with 786-0; 60.4 µM (inactive) in the experiment with A549; 16 µM (inactive) in the experiment with CCRF-CEM; 95.3 µM (inactive) with HOP-62; 40.7 µM (inactive) with MCF7; 32.3 µM (inactive) with MDA-MB-435. The GI50 in the experiment on MOLT-4 was 28.5 µM (inactive); with NCI-H23, 71.3 µM (inactive); with NCI-H460, 27 µM (inactive); in the experiment on OVCAR-5, 99.3 µM (inactive); in the experiment with PC-3, 38.2 µM (inactive); in the experiment with SF-295 it was 36 µM (inactive). Further, the GI50 in the experiment on SK-MEL-2 was 51.9 µM (inactive); in the experiment on SNB-19, 84.3 µM (inactive); with TK-10, 88.7 µM (inactive); with U-251 it was 45 µM (inactive); with UACC-257, 71.6 µM (inactive); in the experiment on UACC-62, 35.2 µM (inactive).
Regarding `NS(=O)(=O)c1nnc(NC(=S)NC(=O)Nc2ccc(Cl)c(Cl)c2)s1`, the GI50 is 28.3 µM (inactive) in the experiment on 786-0; 32 µM (inactive) in the experiment with A549; 28.1 µM (inactive) in the experiment on CCRF-CEM; 22.8 µM (inactive) in the experiment on HOP-62; 38 µM (inactive) in the experiment with MCF7; 19.4 µM (inactive) in the experiment with MDA-MB-435. Further, the GI50 was 29 µM (inactive) in the experiment with MOLT-4; 18.1 µM (inactive) with NCI-H23; 25.1 µM (inactive) in the experiment with OVCAR-5; 27.3 µM (inactive) with PC-3; 21.2 µM (inactive) with SF-295; 31.8 µM (inactive) in the experiment with SK-MEL-2. For the same molecule, the GI50 was 28.3 µM (inactive) with SNB-19; 34.9 µM (inactive) in the experiment with TK-10; 36.3 µM (inactive) in the experiment on U-251; 23.1 µM (inactive) in the experiment with UACC-257; 17.5 µM (inactive) in the experiment on UACC-62.
For `Cc1ccc(/C(Cl)=C/C=C(C#N)C#N)cc1`, the GI50 in the experiment on 786-0 was 1.88 µM (inactive); with A549, 21.9 µM (inactive); in the experiment on CCRF-CEM, 0.441 µM (active); in the experiment with HOP-62, 1.98 µM (inactive); with MCF7, 30.4 µM (inactive); in the experiment with MDA-MB-435, 2.47 µM (inactive). Besides, the GI50 in the experiment with MOLT-4 was 0.65 µM (active); with NCI-H23 it was 1.76 µM (inactive); with NCI-H460 it was 3.8 µM (inactive); in the experiment on OVCAR-5, 2.6 µM (inactive); in the experiment on PC-3 it was 4.01 µM (inactive); in the experiment with SF-295 it was 13.3 µM (inactive). Also, the GI50 is 6.32 µM (inactive) with SK-MEL-2; 7.62 µM (inactive) in the experiment on SNB-19; 2.25 µM (inactive) with TK-10; 4.18 µM (inactive) in the experiment on U-251; 2.52 µM (inactive) in the experiment with UACC-257; 4.51 µM (inactive) with UACC-62.
In the case of `COc1ccc(N2C(=O)c3cc(C)cnc3S2(=O)=O)cc1`, the GI50 with 786-0, with A549, with CCRF-CEM, with HOP-62, in the experiment with MDA-MB-435 and with MDA-N was > 100 µM (inactive) each time. The GI50 in the experiment on MOLT-4, in the experiment on NCI-H23, in the experiment on NCI-H460, with OVCAR-5, in the experiment with PC-3 and in the experiment on SF-295 was > 100 µM (inactive) throughout. The GI50 with SK-MEL-2, with SNB-19, in the experiment on TK-10, in the experiment with U-251 and in the experiment on UACC-62 was > 100 µM (inactive) each time.
In the case of `CCOC(=O)c1nc2ccc(C(F)(F)F)cc2nc1Oc1ccc(C(=O)OC)cc1`, the GI50 was 66.1 µM (inactive) with 786-0; > 100 µM (inactive) in the experiment with CCRF-CEM; 22.5 µM (inactive) with HOP-62; 43.1 µM (inactive) with MCF7; 71.1 µM (inactive) in the experiment on MDA-MB-435; > 100 µM (inactive) in the experiment with MOLT-4. Further, the GI50 in the experiment with NCI-H23 is 97.5 µM (inactive); in the experiment with NCI-H460 it was 54.5 µM (inactive); with PC-3, 32.5 µM (inactive); in the experiment with SF-295 it was 54.8 µM (inactive); in the experiment on SK-MEL-2 it was 32.1 µM (inactive); with SNB-19 it was 46.8 µM (inactive). Besides, the GI50 in the experiment on TK-10 is 45.8 µM (inactive); with U-251, 36.1 µM (inactive); with UACC-257 it was > 100 µM (inactive); in the experiment with UACC-62, 59.4 µM (inactive).
On to `COC(=O)CCCC1(CCCC(=O)OC)CCCCCCCCC(CCCC(=O)OC)(CCCC(=O)OC)C(=O)C1=O`, for which the GI50 was 17.1 µM (inactive) in the experiment with 786-0; 11.6 µM (inactive) in the experiment on A549; 38.5 µM (inactive) in the experiment with HOP-62; 85.5 µM (inactive) with MCF7; 86.1 µM (inactive) in the experiment with MDA-MB-435; > 100 µM (inactive) with MDA-N. For the same molecule, the GI50 in the experiment on NCI-H23 is 18.6 µM (inactive); in the experiment on NCI-H460 it was 88.1 µM (inactive); in the experiment on OVCAR-5 it was > 100 µM (inactive); in the experiment on PC-3 it was 21.2 µM (inactive); with SF-295, > 100 µM (inactive); in the experiment with SK-MEL-2, 28.9 µM (inactive). Also, the GI50 is > 100 µM (inactive) with SNB-19; > 100 µM (inactive) in the experiment on TK-10; 18.9 µM (inactive) in the experiment on U-251; > 100 µM (inactive) in the experiment on UACC-257; 13.6 µM (inactive) in the experiment with UACC-62.
Regarding `CC(C)(C)C(=O)C(C(c1ccccc1)N1CCOCC1)N1CCOCC1` (stereo not given), the GI50 with 786-0, in the experiment with A549, in the experiment with CCRF-CEM, in the experiment on HOP-62, with MDA-MB-435 and in the experiment on MDA-N was > 100 µM (inactive) throughout. For the same molecule, the GI50 with MOLT-4, in the experiment with NCI-H23, in the experiment on NCI-H460, in the experiment with OVCAR-5, in the experiment with PC-3 and with SF-295 was > 100 µM (inactive) throughout. The GI50 with SK-MEL-2, with SNB-19, in the experiment on TK-10, in the experiment on U-251, with UACC-257 and with UACC-62 was > 100 µM (inactive) throughout.
For `CN1CN(c2ccccc2)C2(CCN(Cc3nc4ccccc4s3)CC2)C1=O`, the GI50 in the experiment on 786-0 was 17.2 µM (inactive); in the experiment on A549, 17.3 µM (inactive); in the experiment with CCRF-CEM, 17.3 µM (inactive); in the experiment with HOP-62, 16.6 µM (inactive); in the experiment with MCF7, 15.7 µM (inactive); in the experiment with MDA-MB-435, 17.8 µM (inactive). Also, the GI50 with MOLT-4 was 15.1 µM (inactive); in the experiment on NCI-H23, 18.1 µM (inactive); in the experiment on OVCAR-5, 17.7 µM (inactive); in the experiment on PC-3, 14.2 µM (inactive); with SF-295, 17.9 µM (inactive); in the experiment with SK-MEL-2, 18.6 µM (inactive). The GI50 in the experiment with SNB-19 is 15 µM (inactive); with TK-10 it was 16.3 µM (inactive); with U-251, 16.1 µM (inactive); in the experiment on UACC-257, 16.6 µM (inactive); in the experiment on UACC-62, 16 µM (inactive).
Consider `CCOP(=O)(C=C=C(C)C)OCC`, for which the GI50 in the experiment with 786-0, with A549, with HOP-62, in the experiment on MCF7, with MDA-MB-435 and in the experiment with MDA-N was > 100 µM (inactive) in each case. Besides, the GI50 in the experiment with NCI-H23, in the experiment on NCI-H460, with OVCAR-5, in the experiment with PC-3, with SF-295 and in the experiment on SK-MEL-2 was > 100 µM (inactive) each time. The GI50 in the experiment on SNB-19, with TK-10, in the experiment on U-251, with UACC-257 and in the experiment with UACC-62 was > 100 µM (inactive) in each case.
Take `O=C(CNCc1ccccc1)Oc1c(Cl)c(Cl)c(Cl)c(Cl)c1Cl`: the GI50 in the experiment on 786-0 was 93.1 µM (inactive); in the experiment on A549, 30.4 µM (inactive); in the experiment with HOP-62 it was 76.7 µM (inactive); in the experiment on MCF7 it was 38.5 µM (inactive); in the experiment on MDA-MB-435, 35.2 µM (inactive); in the experiment with MOLT-4, 22.3 µM (inactive). The GI50 with NCI-H23 was > 100 µM (inactive); in the experiment with NCI-H460, 38.9 µM (inactive); in the experiment on OVCAR-5, 66.5 µM (inactive); with PC-3 it was 22.1 µM (inactive); with SF-295, 27.2 µM (inactive); in the experiment with SK-MEL-2, 29.2 µM (inactive). In addition, the GI50 with SNB-19 is 28.6 µM (inactive); in the experiment with TK-10, 37.7 µM (inactive); in the experiment on U-251, 28.5 µM (inactive); in the experiment on UACC-257, 23.1 µM (inactive); in the experiment on UACC-62, 21.5 µM (inactive).
Take `O=C1c2ccccc2-c2c3c(cc4ccnc1c24)OCO3` [LIRIODENINE]: the GI50 with 786-0 is 4.25 µM (inactive) and 7.69 µM (inactive); in the experiment on A549, 3.48 µM (inactive) and 3.47 µM (inactive); in the experiment on CCRF-CEM, 4.1 µM (inactive) and 2.7 µM (inactive); in the experiment on HOP-62, 3.89 µM (inactive); in the experiment with MOLT-4, 3.38 µM (inactive) and 3.67 µM (inactive); with NCI-H23, 4.05 µM (inactive) and 5.4 µM (inactive). Also, the GI50 in the experiment with NCI-H460 was 3.59 µM (inactive) and 3.34 µM (inactive); with OVCAR-5, 16.9 µM (inactive) and 11.5 µM (inactive); in the experiment on SF-295, 6.12 µM (inactive) and 4.86 µM (inactive); with SK-MEL-2, 4.19 µM (inactive) and 6 µM (inactive); with SNB-19, 5.68 µM (inactive) and 8 µM (inactive); in the experiment with U-251, 6.32 µM (inactive) and 5.45 µM (inactive). In addition, in the experiment on UACC-62, the GI50 is 4.57 µM (inactive) and 2.77 µM (inactive).
